Reference: US20230142981A1, “METHOD FOR IDENTIFING A MARKER FOR A BIOLOGICAL INTERACTION” (ARPEGGIO BIOSCIENCES, INC., priority 2020, published 2023)
One block for each compound: values may come before it.

Experiments:
HMOX1 [1] = experiment: RT-qPCR assay of HMOX1 expression in HT-1080 cells; type: cell-based; settings: for effect of ferrostatin-1 on induction of HMOX1: HT-1080, sodium arsenite 80 μM, hemin 5 μM, RSL3 1 μM, with or without 1 μM ferrostatin-1, four hours, normalized to DMSO control; for relative expression of HMOX1 in the absence of ferrostatin-1: HT-1080, 1 μM, four hours
Procedure: (§1) To confirm HMOX1 induction by the GPX4 inhibitors, an RT-qPCR assay was performed using three ferroptosis sensitive cancer cell lines: the fibrosarcoma cell line HT-1080, a Ewing's sarcoma cell line A673, and a renal clear cell carcinoma cell line 786-O. Briefly, cells were exposed to 1 μM ML162 or 1 μM RSL3 for 4 hours, RNA was isolated and an RT-qPCR assay was performed.
To further validate induction of HMOX1 mRNA expression by GPX4 inhibition, RT-qPCR was performed using varying doses of the RSL3 inhibitor. Briefly, HT-1080 cells were exposed to 5 μM RSL3, 1 μM RSL3, and 0.2 μM RSL3 for four hours, RNA was isolated and an RT-qPCR assay was performed to quantify HMOX1 expression. DMSO was used as a control exposure.
(§2) Briefly, HT-1080, A673, and 786-O cells were exposed to 1 μM ML162 or 1 μM RLS3 with or without 1 μM ferrostatin-1 for four hours, RNA was isolated and an RT-qPCR assay was performed to quantify HMOX1 expression. DMSO was used as a control exposure.
Sodium arsenite and hemin are known to be inducers of general oxidative stress in cells. Briefly, HT-1080 cells were exposed to sodium arsenite (80 μM), hemin (5 μM), ML162 (1 μM), or RSL3 (1 μM) with or without 1 μM ferrostatin-1 for four hours, RNA was isolated and an RT-qPCR assay was performed to quantify HMOX1 expression. DMSO was used as a control exposure.

[2] = test system: lung fibroblast cell line IMR90; experiment: nascent RNA sequencing of IMR90 cells exposed to GPX4 inhibitors; type: cell-based; settings: IMR90, 1 μM, 1 hour, Pval 10^−3
Procedure: (§3) To assess the transcriptional response of a cell to inhibition of GPX4, we exposed two cell lines to two different chemical inhibitors of GPX4 (ML162 and RSL3; available from Sigma Aldrich and Apex Bio respectively) and examined the transcriptional responses using a nascent RNA sequencing protocol. Briefly, a fibrosarcoma cell line HT-1080 and a lung fibroblast cell line IMR90 were exposed to 1 μM ML162 or 1 μM RSL3 for 1 hour and the nascent RNA sequencing protocol was performed.

[3] = test system: fibrosarcoma cell line HT-1080; experiment: nascent RNA sequencing of HT-1080 cells exposed to GPX4 inhibitors; type: cell-based; settings: 1 hour; for number of genes with significant changes in gene transcription: 1 μM, HT-1080 compared with IMR90; for HMOX1 differential expression (nascent RNA sequencing): HT-1080, 1 μM, Pval<10^−2
Procedure: as §3

HMOX1 [4] = experiment: RT-qPCR assay of HMOX1 expression in 786-O cells; type: cell-based; settings: 1 μM; for relative expression of HMOX1 in the absence of ferrostatin-1: four hours, relative to ACTB
Procedure: as §1, §2

HMOX1 [5] = experiment: RT-qPCR assay of HMOX1 expression in A673 cells; type: cell-based; settings: A673, 1 μM; for relative expression of HMOX1 in the absence of ferrostatin-1: four hours, relative to ACTB
Procedure: as §1, §2

786-O = settings: cells treated with small molecules that induce lipid peroxidation; cited from earlier work
A673 = settings: A673, cells treated with small molecules that induce lipid peroxidation; cited from earlier work
HT-1080 = settings: HT-1080, cells treated with small molecules that induce lipid peroxidation; cited from earlier work
[6] = test system: breast cancer cell line (MCF7); experiment: nascent RNA sequencing (SNAP-seq) of MCF7 cells after estradiol treatment; type: cell-based; settings: MCF7, 100 nM estradiol, 15 minutes, significance threshold pval 10^−3
Procedure: (§4) To assess the sensitivity and dynamic range of the nascent RNA sequencing assay in gauging a cellular response to a stimulus, the performance of a steady state RNA-seq protocol was compared against a nascent RNA sequencing protocol using a breast cancer cell line (MCF7) model and estrogen treatment to elicit a well characterized, widespread transcriptional response driven by ERα and ERβ transcription factors. Briefly, cell cultures were treated with 100 nM estradiol for 15 minutes or left untreated (i.e., untreated controls) and a steady state RNA-seq protocol or the nascent RNA sequencing assay described herein above was performed.

[7] = test system: breast cancer cell line (MCF7); experiment: steady state RNA-seq of MCF7 cells after estradiol treatment; type: cell-based; settings: MCF7, 100 nM estradiol, 15 minutes, pval 10^−3
Procedure: as §4

[8] = 4 hours, normalized to DMSO control, n=2

Compound: O=[As]O [sodium arsenite]
effect of ferrostatin-1 on induction of HMOX1 (HMOX1 [1]): not affected by the presence of ferrostatin-1

fold induction for HMOX1 mRNA (HMOX1 [1]; 1 µM): induced
fold induction for HMOX1 mRNA (HMOX1 [4]; [8]): induced
fold induction for HMOX1 mRNA (HMOX1 [5]; [8]): induced
Compound: COc1ccc(N(C(=O)CCl)C(C(=O)NCCc2ccccc2)c2cccs2)cc1Cl (stereo not drawn) [ML162]
HMOX1 differential expression (nascent RNA sequencing) [2]: strongly differentially expressed
number of genes with significant changes in gene transcription [3]: greater in the HT-1080 cell line relative to the IMR90 cell line
HMOX1 differential expression (nascent RNA sequencing) [3]: strongly differentially expressed
relative expression of HMOX1 in the presence of ferrostatin-1 (HMOX1 [1]; HT-1080, 1 μM with 1 μM ferrostatin-1, four hours, relative to ACTB): induced HMOX1 even in the presence of ferrostatin-1
relative expression of HMOX1 in the absence of ferrostatin-1 (HMOX1 [1]; relative to ACTB): HMOX1 expression was observed
relative expression of HMOX1 in the absence of ferrostatin-1 (HMOX1 [4]): HMOX1 expression was observed
relative expression of HMOX1 in the absence of ferrostatin-1 (HMOX1 [5]): HMOX1 expression was observed

Compound: COC(=O)c1ccc([C@@H]2c3[nH]c4ccccc4c3C[C@@H](C(=O)OC)N2C(=O)CCl)cc1 [RSL3]
HMOX1 differential expression (nascent RNA sequencing) [2]: strongly differentially expressed
number of genes with significant changes in gene transcription [3]: greater in the HT-1080 cell line relative to the IMR90 cell line
HMOX1 differential expression (nascent RNA sequencing) [3]: strongly differentially expressed
relative expression of HMOX1 in the absence of ferrostatin-1 (HMOX1 [1]; relative to ACTB): HMOX1 expression was observed
effect of ferrostatin-1 on induction of HMOX1 (HMOX1 [1]): dependent on lipid peroxidation
relative expression of HMOX1 in the absence of ferrostatin-1 (HMOX1 [4]): HMOX1 expression was observed
relative expression of HMOX1 in the absence of ferrostatin-1 (HMOX1 [5]): HMOX1 expression was observed

Compound: hemin
effect of ferrostatin-1 on induction of HMOX1 (HMOX1 [1]): not affected by the presence of ferrostatin-1

Compound: CCOC(=O)c1ccc(NC2CCCCC2)c(N)c1 [ferrostatin-1]
rescue of cellular viability (ferroptosis-protective effect) (786-O): ferroptosis-protective effect has been observed
rescue of cellular viability (ferroptosis-protective effect) (A673): ferroptosis-protective effect has been observed
rescue of cellular viability (ferroptosis-protective effect) (HT-1080): ferroptosis-protective effect has been observed

Compound: C[C@]12CC[C@@H]3c4ccc(O)cc4CC[C@H]3[C@@H]1CC[C@@H]2O [estradiol]
number of differentially expressed genes (estradiol/untreated), nascent RNA sequencing (SNAP-seq) [6]: 762
number of differentially expressed genes (estradiol/untreated), steady-state RNA-seq [7]: 8
